Read-outs that look alike come from different tables or passages of the source.
Tests used:
Type in all cases: cell-based, Diaphorina citri
[1] = system: neuron 2A (rhinarial plate on flagellomere 2); assay: single-sensillum electrophysiology, odor response of neuron 2A; details: for odor response (frequency of action potentials during stimulus minus baseline), 2A: Table 1, odor diluted to 1%, 50 μL in cartridge; as to all read-outs here: key: 0, no response; +, >50 spikes/second; ++, >100 spikes/second; +++, >150 spikes/second
[2] = system: neuron 2B (rhinarial plate on flagellomere 2); assay: single-sensillum electrophysiology, odor response of neuron 2B; details: for odor response (frequency of action potentials during stimulus minus baseline), 2B: Table 1, odor diluted to 1%, 50 μL in cartridge; as to response to ultra-prolonged activators, 2B: key: 0, no response; +, >50 spikes/second; ++, >100 spikes/second; +++, >150 spikes/second
[3] = system: neuron 2C (rhinarial plate on flagellomere 2); assay: single-sensillum electrophysiology, odor response of neuron 2C; details: for odor response (frequency of action potentials during stimulus minus baseline), 2C: Table 1, odor diluted to 1%, 50 μL in cartridge; as to response to ultra-prolonged activators, 2C: key: 0, no response; +, >50 spikes/second; ++, >100 spikes/second; +++, >150 spikes/second
[4] = system: neuron 4A (rhinarial plate on flagellomere 4); assay: single-sensillum electrophysiology, odor response of neuron 4A; details: for odor response (frequency of action potentials during stimulus minus baseline), 4A: Table 1, odor diluted to 1%, 50 μL in cartridge
[5] = system: neuron 4B (rhinarial plate on flagellomere 4)
[6] = system: neuron 4C (rhinarial plate on flagellomere 4); assay: single-sensillum electrophysiology, odor response of neuron 4C; details: for odor response (frequency of action potentials during stimulus minus baseline), 4C: Table 1, odor diluted to 1%, 50 μL in cartridge
[7] = system: neuron 6A (rhinarial plate on flagellomere 6); assay: single-sensillum electrophysiology, odor response of neuron 6A; details: for odor response (frequency of action potentials during stimulus minus baseline), 6A: Table 1, odor diluted to 1%, 50 μL in cartridge
[8] = system: neuron 6B (rhinarial plate on flagellomere 6); assay: single-sensillum electrophysiology, odor response of neuron 6B; details: for odor response (frequency of action potentials during stimulus minus baseline), 6B: Table 1, odor diluted to 1%, 50 μL in cartridge
[9] = system: neuron 6C (rhinarial plate on flagellomere 6); assay: single-sensillum electrophysiology, odor response of neuron 6C; details: for odor response (frequency of action potentials during stimulus minus baseline), 6C: Table 1, odor diluted to 1%, 50 μL in cartridge
[10] = system: neuron 7A (rhinarial plate on flagellomere 7); assay: single-sensillum electrophysiology, odor response of neuron 7A; details: for odor response (frequency of action potentials during stimulus minus baseline), 7A: Table 1, odor diluted to 1%, 50 μL in cartridge; as to all read-outs here: key: 0, no response; +, >50 spikes/second; ++, >100 spikes/second; +++, >150 spikes/second
[11] = system: neuron 7B (rhinarial plate on flagellomere 7)
[12] = system: neuron 7C (rhinarial plate on flagellomere 7); assay: single-sensillum electrophysiology, odor response of neuron 7C; details: for odor response (frequency of action potentials during stimulus minus baseline), 7C: Table 1, odor diluted to 1%, 50 μL in cartridge
[13] = Table 1, odor diluted to 1%, 50 μL in cartridge
[14] = Table 3, 10^−2 in paraffin oil, 50 μL, odor puff of 0.5 sec

| Compound | odor response (frequency of action potentials during stimulus minus baseline), 2A [1] | odor response (frequency of action potentials during stimulus minus baseline), 2B [2] | odor response (frequency of action potentials during stimulus minus baseline), 2C [3] | odor response (frequency of action potentials during stimulus minus baseline), 4A [4] | odor response (frequency of action potentials during stimulus minus baseline), 4C [6] | odor response (frequency of action potentials during stimulus minus baseline), 6A [7] | odor response (frequency of action potentials during stimulus minus baseline), 6B [8] | odor response (frequency of action potentials during stimulus minus baseline), 6C [9] | odor response (frequency of action potentials during stimulus minus baseline), 7A [10] | odor response (frequency of action potentials during stimulus minus baseline), 7C [12] | odor response (frequency of action potentials during stimulus minus baseline), 4B [5, 13] | odor response (frequency of action potentials during stimulus minus baseline), 7B [11, 13] | other results |
| --- | --- | --- | --- | --- | --- | --- | --- | --- | --- | --- | --- | --- | --- |
| O [water] | 0 | 0 | 0 | 0 | + (+, >50 spikes/second) | 0 | 0 | + (+, >50 spikes/second) | 0 | 0 |  |  | odor response (frequency of action potentials during stimulus minus baseline), 4B [5]: 0; odor response (frequency of action potentials during stimulus minus baseline), 7B [11]: 0 |
| CCCCCC(C)=O [2-heptanone] | 0 | 0 | + (+, >50 spikes/second) | 0 | 0 | 0 | + (+, >50 spikes/second) | 0 | 0 | 0 | + (+, >50 spikes/second) | 0 |  |
| CCCCCCCCC=O [nonanal] | 0 | 0 | 0 | 0 | 0 | 0 | ++ (++, >100 spikes/second) | 0 | 0 | ++ (++, >100 spikes/second) | ++ (++, >100 spikes/second) | 0 | response to ultra-prolonged activators, 2A [1, 14]: 0; response to ultra-prolonged activators, 2B [2, 14]: 0; response to ultra-prolonged activators, 2C [3, 14]: 0; response to ultra-prolonged activators, 4A [4, 14]: 0; response to ultra-prolonged activators, 4B [5, 14]: ++ (++, >100 spikes/second); response to ultra-prolonged activators, 4C [6, 14]: 0; response to ultra-prolonged activators, 6A [7, 14]: 0; response to ultra-prolonged activators, 6B [8, 14]: ++ (++, >100 spikes/second); response to ultra-prolonged activators, 6C [9, 14]: 0; response to ultra-prolonged activators, 7A [10, 14]: 0; response to ultra-prolonged activators, 7B [11, 14]: 0; response to ultra-prolonged activators, 7C [12, 14]: ++ (++, >100 spikes/second) |
| CCCCCCCCO [1-octanol] | 0 | 0 | 0 | 0 | 0 | 0 | + (+, >50 spikes/second) | 0 | 0 | 0 | + (+, >50 spikes/second) | 0 |  |
| C=CCSSSCC=C [diallyl trisulfide] | 0 | 0 | 0 | 0 | 0 | 0 | + (+, >50 spikes/second) | 0 | 0 | 0 | + (+, >50 spikes/second) | 0 |  |
| CCCC(C)=O [2-pentanone] | 0 | 0 | 0 | 0 | 0 | 0 | + (+, >50 spikes/second) | 0 | 0 | 0 | + (+, >50 spikes/second) | 0 |  |
| CC1=CCC(=C(C)C)CC1 [terpinolene] | 0 | 0 | 0 | 0 | 0 | 0 | + (+, >50 spikes/second) | 0 | 0 | 0 | + (+, >50 spikes/second) | 0 |  |
| CC/C=C\CCO [Z3-hexenol] | 0 | 0 | 0 | 0 | 0 | 0 | + (+, >50 spikes/second) | 0 | 0 | 0 | + (+, >50 spikes/second) | 0 |  |

Source: patent US20180055032A1, “ODORS FOR PSYLLID TRAPPING, REPELLING AND CONTROL” (The Regents of the University of California, priority 2011, published 2018)
